Assay results: PubChem BioAssay AID1259407 (Chemical Carcinogenesis Research Information System (CCRIS), 2018)
Activity calls are given as the source filed them. No rule for the calls is given here.

Tested on: CCRIS mutagenicity, Ames/micronucleus/aberration tests
Assay: CCRIS mutagenicity studies

Measured: mutagenic call

COC(=O)c1ccc(C(=O)OC)cc1
inactive: End Point: IN VITRO CHROMOSOMAL ABERRATIONS, Test System: CHO-LB CELLS, Metabolic Activation: NONE inactive; negative | End Point: IN VITRO CHROMOSOMAL ABERRATIONS, Test System: CHO-LB CELLS, Metabolic Activation: RAT, LIVER, S-9, AROCLOR 1254 inactive; negative | Test System: AMES SALMONELLA TYPHIMURIUM, Strain/Indicator: TA98, Metabolic Activation: HAMSTER, LIVER, S-9, AROCLOR 1254 (10%), Method: PREINCUBATION inactive; negative | Test System: AMES SALMONELLA TYPHIMURIUM, Strain/Indicator: TA98, Metabolic Activation: NONE, Method: PREINCUBATION inactive; negative | Test System: AMES SALMONELLA TYPHIMURIUM, Strain/Indicator: TA98, Metabolic Activation: NONE, Method: STANDARD PLATE inactive; negative | Test System: AMES SALMONELLA TYPHIMURIUM, Strain/Indicator: TA98, Metabolic Activation: RAT LIVER S-9, AROCLOR 1254, Method: STANDARD PLATE inactive; negative | Test System: AMES SALMONELLA TYPHIMURIUM, Strain/Indicator: TA98, Metabolic Activation: RAT LIVER S-9, PHENOBARBITAL AND BETA-NAPHTHOFLAVONE, Method: PREINCUBATION inactive; negative | Test System: AMES SALMONELLA TYPHIMURIUM, Strain/Indicator: TA98, Metabolic Activation: RAT, LIVER, S-9, AROCLOR 1254 (10%), Method: PREINCUBATION inactive; negative | Test System: AMES SALMONELLA TYPHIMURIUM, Strain/Indicator: TA98, Metabolic Activation: RAT, LIVER, S-9, AROCLOR 1254, Method: STANDARD PLATE inactive; negative | Test System: AMES SALMONELLA TYPHIMURIUM, Strain/Indicator: TA98, Metabolic Activation: S-9, Method: STANDARD PLATE inactive; negative | Test System: AMES SALMONELLA TYPHIMURIUM, Strain/Indicator: TA100, Metabolic Activation: HAMSTER, LIVER, S-9, AROCLOR 1254 (10%), Method: PREINCUBATION inactive; negative | Test System: AMES SALMONELLA TYPHIMURIUM, Strain/Indicator: TA100, Metabolic Activation: NONE, Method: PREINCUBATION inactive; negative | Test System: AMES SALMONELLA TYPHIMURIUM, Strain/Indicator: TA100, Metabolic Activation: NONE, Method: STANDARD PLATE inactive; negative | Test System: AMES SALMONELLA TYPHIMURIUM, Strain/Indicator: TA100, Metabolic Activation: RAT LIVER S-9, AROCLOR 1254, Method: STANDARD PLATE inactive; negative | Test System: AMES SALMONELLA TYPHIMURIUM, Strain/Indicator: TA100, Metabolic Activation: RAT LIVER S-9, PHENOBARBITAL AND BETA-NAPHTHOFLAVONE, Method: PREINCUBATION inactive; negative | Test System: AMES SALMONELLA TYPHIMURIUM, Strain/Indicator: TA100, Metabolic Activation: RAT, LIVER, S-9, AROCLOR 1254 (10%), Method: PREINCUBATION inactive; negative | Test System: AMES SALMONELLA TYPHIMURIUM, Strain/Indicator: TA100, Metabolic Activation: RAT, LIVER, S-9, AROCLOR 1254, Method: STANDARD PLATE inactive; negative | Test System: AMES SALMONELLA TYPHIMURIUM, Strain/Indicator: TA100, Metabolic Activation: S-9, Method: STANDARD PLATE inactive; negative | Test System: AMES SALMONELLA TYPHIMURIUM, Strain/Indicator: TA102, Metabolic Activation: NONE, Method: STANDARD PLATE inactive; negative | Test System: AMES SALMONELLA TYPHIMURIUM, Strain/Indicator: TA102, Metabolic Activation: S-9, Method: STANDARD PLATE inactive; negative | Test System: AMES SALMONELLA TYPHIMURIUM, Strain/Indicator: TA1535, Metabolic Activation: HAMSTER, LIVER, S-9, AROCLOR 1254 (10%), Method: PREINCUBATION inactive; negative | Test System: AMES SALMONELLA TYPHIMURIUM, Strain/Indicator: TA1535, Metabolic Activation: NONE, Method: PREINCUBATION inactive; negative | Test System: AMES SALMONELLA TYPHIMURIUM, Strain/Indicator: TA1535, Metabolic Activation: NONE, Method: STANDARD PLATE inactive; negative | Test System: AMES SALMONELLA TYPHIMURIUM, Strain/Indicator: TA1535, Metabolic Activation: RAT LIVER S-9, AROCLOR 1254, Method: STANDARD PLATE inactive; negative | Test System: AMES SALMONELLA TYPHIMURIUM, Strain/Indicator: TA1535, Metabolic Activation: RAT LIVER S-9, PHENOBARBITAL AND BETA-NAPHTHOFLAVONE, Method: PREINCUBATION inactive; negative | Test System: AMES SALMONELLA TYPHIMURIUM, Strain/Indicator: TA1535, Metabolic Activation: RAT, LIVER, S-9, AROCLOR 1254 (10%), Method: PREINCUBATION inactive; negative | Test System: AMES SALMONELLA TYPHIMURIUM, Strain/Indicator: TA1535, Metabolic Activation: RAT, LIVER, S-9, AROCLOR 1254, Method: STANDARD PLATE inactive; negative | Test System: AMES SALMONELLA TYPHIMURIUM, Strain/Indicator: TA1535, Metabolic Activation: S-9, Method: STANDARD PLATE inactive; negative | Test System: AMES SALMONELLA TYPHIMURIUM, Strain/Indicator: TA1537, Metabolic Activation: HAMSTER, LIVER, S-9, AROCLOR 1254 (10%), Method: PREINCUBATION inactive; negative | Test System: AMES SALMONELLA TYPHIMURIUM, Strain/Indicator: TA1537, Metabolic Activation: NONE, Method: PREINCUBATION inactive; negative | Test System: AMES SALMONELLA TYPHIMURIUM, Strain/Indicator: TA1537, Metabolic Activation: NONE, Method: STANDARD PLATE inactive; negative | Test System: AMES SALMONELLA TYPHIMURIUM, Strain/Indicator: TA1537, Metabolic Activation: RAT LIVER S-9, AROCLOR 1254, Method: STANDARD PLATE inactive; negative | Test System: AMES SALMONELLA TYPHIMURIUM, Strain/Indicator: TA1537, Metabolic Activation: RAT LIVER S-9, PHENOBARBITAL AND BETA-NAPHTHOFLAVONE, Method: PREINCUBATION inactive; negative | Test System: AMES SALMONELLA TYPHIMURIUM, Strain/Indicator: TA1537, Metabolic Activation: RAT, LIVER, S-9, AROCLOR 1254 (10%), Method: PREINCUBATION inactive; negative | Test System: AMES SALMONELLA TYPHIMURIUM, Strain/Indicator: TA1537, Metabolic Activation: RAT, LIVER, S-9, AROCLOR 1254, Method: STANDARD PLATE inactive; negative | Test System: AMES SALMONELLA TYPHIMURIUM, Strain/Indicator: TA1537, Metabolic Activation: S-9, Method: STANDARD PLATE inactive; negative | Test System: AMES SALMONELLA TYPHIMURIUM, Strain/Indicator: TA1538, Metabolic Activation: NONE, Method: PREINCUBATION inactive; negative | Test System: AMES SALMONELLA TYPHIMURIUM, Strain/Indicator: TA1538, Metabolic Activation: NONE, Method: STANDARD PLATE inactive; negative | Test System: AMES SALMONELLA TYPHIMURIUM, Strain/Indicator: TA1538, Metabolic Activation: RAT LIVER S-9, AROCLOR 1254, Method: STANDARD PLATE inactive; negative | Test System: AMES SALMONELLA TYPHIMURIUM, Strain/Indicator: TA1538, Metabolic Activation: RAT LIVER S-9, PHENOBARBITAL AND BETA-NAPHTHOFLAVONE, Method: PREINCUBATION inactive; negative | Test System: AMES SALMONELLA TYPHIMURIUM, Strain/Indicator: TA1538, Metabolic Activation: RAT, LIVER, S-9, AROCLOR 1254, Method: STANDARD PLATE inactive; negative | Test System: AMES SALMONELLA TYPHIMURIUM, Strain/Indicator: TA1538, Metabolic Activation: S-9, Method: STANDARD PLATE inactive; negative | Test System: E.COLI, Strain/Indicator: WP2UVRA, Metabolic Activation: NONE, Method: PREINCUBATION inactive; negative | Test System: E.COLI, Strain/Indicator: WP2UVRA, Metabolic Activation: RAT LIVER S-9, PHENOBARBITAL AND BETA-NAPHTHOFLAVONE, Method: PREINCUBATION inactive; negative | Test System: UDS HUMAN HELA CELLS, Strain/Indicator: THYMIDINE INCORPORATION, Metabolic Activation: NONE, Method: LIQUID SCINTILLATION COUNTING inactive; negative

CC(CN(CC(=O)O)CC(=O)O)N(CC(=O)O)CC(=O)O (stereo unspecified)
active: Test System: CHINESE HAMSTER V-79, Strain/Indicator: V-79/OUABAIN, Metabolic Activation: NONE, Method: STANDARD PLATE active; positive | Test System: UDS RODENT CELLS, Strain/Indicator: THY INCORP (NON-S-PHASE), Metabolic Activation: NONE, Method: AUTORADIOGRAPHY active; positive

CCCCOC(=O)CCC
inactive: Test System: AMES SALMONELLA TYPHIMURIUM, Strain/Indicator: TA97, Metabolic Activation: NONE, Method: PREINCUBATION inactive; negative | Test System: AMES SALMONELLA TYPHIMURIUM, Strain/Indicator: TA97, Metabolic Activation: RAT, LIVER, S-9, AROCLOR 1254, Method: PREINCUBATION inactive; negative | Test System: AMES SALMONELLA TYPHIMURIUM, Strain/Indicator: TA102, Metabolic Activation: NONE, Method: PREINCUBATION inactive; negative | Test System: AMES SALMONELLA TYPHIMURIUM, Strain/Indicator: TA102, Metabolic Activation: RAT, LIVER, S-9, AROCLOR 1254, Method: PREINCUBATION inactive; negative
